The values that follow come from patent US7060722B2, “Proline derivatives and use thereof as drugs” (Mitsubishi Pharma Corporation, priority 2000, dated 2006).

In one test the target is T1, Rat plasma DPP-IV (Rattus norvegicus, UniProt P14740).
T1 construct: from tissue; host or cells: rat plasma
The test is described as follows: Plasma DPP-IV inhibitory activity, fluorescence assay (rat plasma). It is filed as biochemical. The following applies: rat plasma (10-fold diluted), Gly-Pro-MCA substrate, room temperature 60 min. The method, then:
(§1) The plasma DPP-IV inhibitory activity of human and rat was measured by the fluorescence assay method.
(§2) The inhibitory rate relative to the solvent addition group was calculated and IC50 values were determined by logistic analysis.

The next test deals with T2, Human plasma DPP-IV (Homo sapiens, UniProt P27487).
T2 construct: from tissue; host or cells: human plasma
T2 sequence (P27487 39-766 limits assumed): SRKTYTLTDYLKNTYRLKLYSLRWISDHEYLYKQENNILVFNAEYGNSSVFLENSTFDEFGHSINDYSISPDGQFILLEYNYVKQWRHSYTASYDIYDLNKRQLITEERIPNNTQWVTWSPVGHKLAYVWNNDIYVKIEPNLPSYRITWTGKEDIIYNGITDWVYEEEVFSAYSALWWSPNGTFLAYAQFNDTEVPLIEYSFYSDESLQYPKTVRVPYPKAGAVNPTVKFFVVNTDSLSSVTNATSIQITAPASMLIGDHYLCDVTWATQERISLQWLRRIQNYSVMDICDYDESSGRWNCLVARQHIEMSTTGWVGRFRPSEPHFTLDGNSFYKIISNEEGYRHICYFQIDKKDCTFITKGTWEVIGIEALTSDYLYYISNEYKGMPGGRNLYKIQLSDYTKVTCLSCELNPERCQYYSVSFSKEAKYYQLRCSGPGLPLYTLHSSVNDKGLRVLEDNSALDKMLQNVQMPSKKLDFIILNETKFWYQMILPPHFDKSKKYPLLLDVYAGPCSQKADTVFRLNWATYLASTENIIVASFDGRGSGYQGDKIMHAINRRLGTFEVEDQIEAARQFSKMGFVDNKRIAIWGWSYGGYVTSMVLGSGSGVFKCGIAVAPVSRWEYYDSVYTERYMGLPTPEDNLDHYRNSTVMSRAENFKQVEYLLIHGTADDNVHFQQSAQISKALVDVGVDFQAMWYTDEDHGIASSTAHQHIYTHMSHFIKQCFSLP
The test is described as follows: Plasma DPP-IV inhibitory activity, fluorescence assay (human plasma). It is filed as biochemical. The following applies: human plasma (10-fold diluted), Gly-Pro-MCA substrate, room temperature 60 min. How it is done: as §1, §2

Where a name gives a salt, the structure may show the parent alone.

T1 sequence (P14740 37-767 limits assumed): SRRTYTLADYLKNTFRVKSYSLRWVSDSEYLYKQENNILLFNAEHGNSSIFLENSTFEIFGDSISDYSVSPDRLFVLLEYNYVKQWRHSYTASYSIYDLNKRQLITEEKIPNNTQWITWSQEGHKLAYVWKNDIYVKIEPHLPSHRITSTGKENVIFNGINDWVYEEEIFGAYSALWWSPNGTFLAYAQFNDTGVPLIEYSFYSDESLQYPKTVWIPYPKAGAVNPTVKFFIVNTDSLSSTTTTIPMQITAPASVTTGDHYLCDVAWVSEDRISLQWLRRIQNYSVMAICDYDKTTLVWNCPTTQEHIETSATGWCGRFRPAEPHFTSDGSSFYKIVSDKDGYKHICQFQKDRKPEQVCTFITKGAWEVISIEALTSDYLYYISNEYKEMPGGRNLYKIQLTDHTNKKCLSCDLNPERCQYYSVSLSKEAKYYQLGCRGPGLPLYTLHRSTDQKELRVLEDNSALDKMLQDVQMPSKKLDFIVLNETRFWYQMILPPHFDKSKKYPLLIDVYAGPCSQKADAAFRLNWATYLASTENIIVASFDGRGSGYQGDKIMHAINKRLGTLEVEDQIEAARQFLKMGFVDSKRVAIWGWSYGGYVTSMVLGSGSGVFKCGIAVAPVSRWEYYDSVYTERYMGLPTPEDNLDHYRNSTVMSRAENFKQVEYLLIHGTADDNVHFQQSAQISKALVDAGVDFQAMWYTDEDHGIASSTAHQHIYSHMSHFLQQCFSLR

Regarding `N#C[C@@H]1CCCN1C(=O)[C@@H]1C[C@H](Nc2ccc(C(F)(F)F)cn2)CN1` [Example 20, (S)-2-cyano-1-[(2S,4S)-4-(5-trifluoromethyl-2-pyridyl)amino-2-pyrrolidinylcarbonyl]pyrrolidine 2 trifluoroacetate], the values for the IC50 on Rat plasma DPP-IV and against Human plasma DPP-IV were 0.41 nM and 0.54 nM, respectively.
For `N#C[C@@H]1CCCN1C(=O)[C@@H]1C[C@H](Nc2ncccn2)CN1` [Example 24, (S)-2-cyano-1-[(2S,4S)-4-(2-pyrimidinyl)amino-2-pyrrolidinylcarbonyl]pyrrolidine hydrochloride] the same measures were 0.64 nM and 0.51 nM.
For `N#C[C@@H]1CCCN1C(=O)[C@@H]1C[C@H](NCc2ccc([N+](=O)[O-])cc2)CN1` [Example 29, (S)-2-cyano-1-[(2S,4S)-4-(4-nitrophenylmethyl)amino-2-pyrrolidinylcarbonyl]pyrrolidine dihydrochloride] the same measures were 0.22 nM and 0.3 nM.
For `CCOC(=O)CN(CC(=O)OCC)[C@@H]1CN[C@H](C(=O)N2CCC[C@H]2C#N)C1` [Example 39, (S)-2-cyano-1-{(2S,4S)-4-[N,N-bis(ethoxycarbonylmethyl)amino]-2-pyrrolidinylcarbonyl}pyrrolidine dihydrochloride] the same measures were 0.55 nM and 1.1 nM.
Consider `CN(Cc1cccc(C#N)c1)[C@@H]1CN[C@H](C(=O)N2CCSC2)C1` [Example 99, 3-{(2S,4S)-4-[N-(3-cyanophenylmethyl)-N-methylamino]-2-pyrrolidinylcarbonyl}-1,3-thiazolidine dihydrochloride], for which the half-maximal inhibitory concentration (IC50) (commonly the concentration needed to halve the response being measured) against Rat plasma DPP-IV worked out at 9.4 nM; against Human plasma DPP-IV, 6.8 nM.
On to `O=C([C@@H]1C[C@H](N2CCC(c3cc4ccccc4s3)CC2)CN1)N1CCSC1` [Example 143, 3-{(2S,4S)-4-[4-(2-benzo[b]thienyl)piperidino]-2-pyrrolidinylcarbonyl}-1,3-thiazolidine dihydrochloride], for which the IC50 was 2.1 nM against Rat plasma DPP-IV and 1.5 nM against Human plasma DPP-IV.
The matching figures for `O=C([C@@H]1C[C@H](N2CCN(c3ccc([N+](=O)[O-])cn3)CC2)CN1)N1CCCC1` [Example 186, 1-{(2S,4S)-4-[4-(5-nitro-2-pyridyl)-1-piperazinyl]-2-pyrrolidinylcarbonyl}pyrrolidine trihydrochloride]: 4.2 nM and 3.7 nM.
As to `O=C(O)c1ccc(N2CCN([C@@H]3CN[C@H](C(=O)N4CCSC4)C3)CC2)nc1` [Example 212, 3-{(2S,4S)-4-[4-(5-carboxy-2-pyridyl)-1-piperazinyl]-2-pyrrolidinylcarbonyl}-1,3-thiazolidine trihydrochloride], the 50% inhibitory concentration (IC50) at Rat plasma DPP-IV worked out at 0.75 nM; at Human plasma DPP-IV, 0.45 nM.
For `O=C([C@@H]1C[C@H](N2CCN(c3nc4ccc(C(F)(F)F)cc4s3)CC2)CN1)N1CCSC1` [Example 242, 3-{(2S,4S)-4-[4-(6-trofluoromethyl-2-benzothiazolyl)-1-piperazinyl]-2-pyrrolidinylcarbonyl}-1,3-thiazolidine dihydrochloride] the same measures were 0.34 nM and 0.33 nM.
`O=C([C@@H]1C[C@H](N2CCC(c3nn(CCN4CCOCC4)c(=O)o3)CC2)CN1)N1CCSC1` [Example 296, 3-((2S,4S)-4-{4-[4-(2-morpholinoethyl)-5-oxo-4,5-dihydro-1,3,4-oxadiazol-2-yl]piperidino}-2-pyrrolidinylcarbonyl)-1,3-thiazolidine trihydrochloride]: the half-maximal inhibitory concentration (IC50) against Rat plasma DPP-IV worked out at 1.9 nM; against Human plasma DPP-IV, 1.1 nM.
The matching figures for `O=C([C@@H]1C[C@H](N2CCC(c3nc4ccc(F)cc4[nH]3)CC2)CN1)N1CCSC1` [Example 303, 3-{(2S,4S)-4-[4-(5-fluoro-2-benzimidazolyl)piperidino]-2-pyrrolidinylcarbonyl}-1,3-thiazolidine trihydrochloride]: 1.1 nM and 0.61 nM.
